Tests used:
Assay type in all cases: in vivo
[1] = test system: goosegrass (Eleusine indica); assay: Test E greenhouse herbicide test, pre- and postemergence; details: Preemergence
Outline: (§1)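 Herbicidal effect was judged by eye relative to untreated plants 14 to 21 d after spraying, using 0 for no effect and 100 for complete control. Preemergence sprays went onto freshly seeded silt loam; postemergence sprays onto 2–18 cm seedlings.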

[2] = test system: waterhemp (common waterhemp, Amaranthus rudis); assay: as above
Outline: as §1

[3] = test system: beggarticks (hairy beggarticks, Bidens pilosa); assay: as above
Outline: as §1

[4] = test system: horseweed (Conyza canadensis); assay: as above; details: Postemergence
Outline: as §1

[5] = test system: crabgrass, large (large crabgrass, Digitaria sanguinalis); assay: as above; details: Preemergence
Outline: as §1

[6] = test system: surinam grass (Brachiaria decumbens); assay: as above; details: Preemergence
Outline: as §1

[7] = test system: field bindweed (Convolvulus arvensis); assay: as above
Outline: as §1

[8] = test system: panicum, fall (fall panicum, Panicum dichotomiflorum); assay: as above
Outline: as §1

[9] = test system: foxtail, giant (giant foxtail, Setaria faberii); assay: as above; details: Preemergence
Outline: as §1

[10] = test system: nightshade (eastern black nightshade, Solanum ptycanthum); assay: as above; details: Preemergence
Outline: as §1

[11] = test system: ragweed (common ragweed, Ambrosia elatior); assay: as above
Outline: as §1

[12] = test system: sandbur (southem sandbur, Cenchrus echinatus); assay: as above
Outline: as §1

kochia (Kochia scoparia) = assay: as above
Outline: as §1

[13] = test system: crabgrass, Brazilian (Brazilian crabgrass, Digitaria horizontalis); assay: as above
Outline: as §1

[14] = test system: waterhemp_RES2 (ALS & HPPD resistant common waterhemp, Amaranthus rudis); assay: Test E greenhouse herbicide test, postemergence
Outline: (§2)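 Postemergence spray of formulated test chemicals onto resistant waterhemp at 1- to 4-leaf stage (2–18 cm tall), grown in peat/vermiculite potting medium. Kept in greenhouse 14 to 21 d, then visually rated against untreated controls on a 0–100 scale (0 no effect, 100 complete control).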

[15] = test system: waterhemp_RES1 (ALS & Triazine resistant common waterhemp, Amaranthus rudis); assay: Test E greenhouse herbicide test, postemergence
Outline: as §2

[16] = 62 g ai/ha, scale 0 to 100 (0 no effect, 100 complete control)
[17] = 31 g ai/ha, scale 0 to 100, 0 no effect, 100 complete control
[18] = 125 g ai/ha, visual, scale 0 no effect to 100 complete control
[19] = 250 g ai/ha, visual, scale 0 no effect to 100 complete control
[20] = 62 g ai/ha, Postemergence, scale 0 to 100 (0 no effect, 100 complete control)
[21] = 62 g ai/ha, Preemergence, scale 0 to 100 (0 no effect, 100 complete control)
[22] = 125 g ai/ha, Postemergence, scale 0 to 100 (0 no effect, 100 complete control)
[23] = 125 g ai/ha, Preemergence, scale 0 to 100 (0 no effect, 100 complete control)
[24] = 250 g ai/ha, Postemergence, scale 0 to 100 (0 no effect, 100 complete control)
[25] = Postemergence, 31 g ai/ha, visual, scale 0 no effect to 100 complete control
[26] = Preemergence, 31 g ai/ha, scale 0 to 100, 0 no effect, 100 complete control
[27] = Preemergence, 250 g ai/ha, visual, scale 0 no effect to 100 complete control
[28] = Preemergence, 125 g ai/ha, visual, scale 0 no effect to 100 complete control
[29] = 125 g ai/ha, scale 0 to 100 (0 no effect, 100 complete control)
[30] = 250 g ai/ha, scale 0 to 100 (0 no effect, 100 complete control)
[31] = 31 g ai/ha, visual, scale 0 no effect to 100 complete control

Q: Which “Plant response rating, Goosegrass” value [1, 16] does the source give for `Cc1cc2ccccc2c(-c2c(O)c(C)nn(C)c2=O)c1C` [Compound 34] here?
A: 5

Q: What about the “Plant response rating, Goosegrass” value [1, 17] of the same compound?
A: 5

Q: What about the “Plant response rating, Goosegrass” value [1, 18] of the same compound?
A: 10

Q: And the “Plant response rating, Goosegrass” value [1, 19]?
A: 10

Q: What about the “Plant response rating, Waterhemp” value [2, 20] of the same compound?
A: 85

Q: What about the “Plant response rating, Waterhemp” value [2, 21] of the same compound?
A: 100

Q: What about the “Plant response rating, Waterhemp” value [2, 22] of the same compound?
A: 85

Q: And the “Plant response rating, Waterhemp” value [2, 23]?
A: 100

Q: And the “Plant response rating, Waterhemp” value [2, 24]?
A: 90

Q: What about the “Plant response rating, Waterhemp” value [2, 25] of the same compound?
A: 70

Q: And the “Plant response rating, Waterhemp” value [2, 26]?
A: 100

Q: What about the “Plant response rating, Waterhemp” value [2, 27] of the same compound?
A: 100

Q: What about the “Plant response rating, Beggarticks” value [3, 20] of the same compound?
A: 100

Q: What about the “Plant response rating, Beggarticks” value [3, 21] of the same compound?
A: 100

Q: And the “Plant response rating, Beggarticks” value [3, 22]?
A: 98

Q: What about the “Plant response rating, Beggarticks” value [3, 24] of the same compound?
A: 100

Q: And the “Plant response rating, Beggarticks” value [3, 25]?
A: 90

Q: What about the “Plant response rating, Beggarticks” value [3, 26] of the same compound?
A: 90

Q: And the “Plant response rating, Beggarticks” value [3, 28]?
A: 100

Q: What about the “Plant response rating, Beggarticks” value [3, 27] of the same compound?
A: 100

Q: And the “Plant response rating, Horseweed” value [4, 16]?
A: 75

Q: What about the “Plant response rating, Horseweed” value [4, 29] of the same compound?
A: 80

Q: What about the “Plant response rating, Horseweed” value [4, 30] of the same compound?
A: 90

Q: What about the “Plant response rating, Horseweed” value [4, 31] of the same compound?
A: 85

Q: And the “Plant response rating, Crabgrass, Large” value [5, 16]?
A: 0

Q: What about the “Plant response rating, Crabgrass, Large” value [5, 17] of the same compound?
A: 0

Q: What about the “Plant response rating, Crabgrass, Large” value [5, 18] of the same compound?
A: 50

Q: What about the “Plant response rating, Crabgrass, Large” value [5, 19] of the same compound?
A: 20

Q: And the “Plant response rating, Surinam Grass” value [6, 16]?
A: 75

Q: And the “Plant response rating, Surinam Grass” value [6, 29]?
A: 95

Q: And the “Plant response rating, Surinam Grass” value [6, 17]?
A: 5

Q: What about the “Plant response rating, Surinam Grass” value [6, 19] of the same compound?
A: 80

Q: What about the “Plant response rating, Field Bindweed” value [7, 20] of the same compound?
A: 80

Q: What about the “Plant response rating, Field Bindweed” value [7, 21] of the same compound?
A: 50

Q: What about the “Plant response rating, Field Bindweed” value [7, 22] of the same compound?
A: 80

Q: What about the “Plant response rating, Field Bindweed” value [7, 24] of the same compound?
A: 95

Q: And the “Plant response rating, Field Bindweed” value [7, 25]?
A: 70

Q: What about the “Plant response rating, Field Bindweed” value [7, 26] of the same compound?
A: 5

Q: What about the “Plant response rating, Field Bindweed” value [7, 28] of the same compound?
A: 40

Q: What about the “Plant response rating, Field Bindweed” value [7, 27] of the same compound?
A: 60

Q: What about the “Plant response rating, Panicum, Fall” value [8, 20] of the same compound?
A: 65

Q: What about the “Plant response rating, Panicum, Fall” value [8, 21] of the same compound?
A: 80

Q: And the “Plant response rating, Panicum, Fall” value [8, 22]?
A: 70

Q: And the “Plant response rating, Panicum, Fall” value [8, 23]?
A: 90

Q: What about the “Plant response rating, Panicum, Fall” value [8, 24] of the same compound?
A: 60

Q: And the “Plant response rating, Panicum, Fall” value [8, 25]?
A: 50

Q: What about the “Plant response rating, Panicum, Fall” value [8, 26] of the same compound?
A: 70

Q: What about the “Plant response rating, Panicum, Fall” value [8, 27] of the same compound?
A: 95

Q: What about the “Plant response rating, Foxtail, Giant” value [9, 16] of the same compound?
A: 40

Q: What about the “Plant response rating, Foxtail, Giant” value [9, 17] of the same compound?
A: 5

Q: What about the “Plant response rating, Foxtail, Giant” value [9, 18] of the same compound?
A: 40

Q: What about the “Plant response rating, Foxtail, Giant” value [9, 19] of the same compound?
A: 65

Q: What about the “Plant response rating, Nightshade” value [10, 16] of the same compound?
A: 25

Q: What about the “Plant response rating, Nightshade” value [10, 29] of the same compound?
A: 98

Q: What about the “Plant response rating, Nightshade” value [10, 17] of the same compound?
A: 0

Q: What about the “Plant response rating, Nightshade” value [10, 19] of the same compound?
A: 95

Q: What about the “Plant response rating, Ragweed” value [11, 20] of the same compound?
A: 85

Q: And the “Plant response rating, Ragweed” value [11, 21]?
A: 75

Q: What about the “Plant response rating, Ragweed” value [11, 22] of the same compound?
A: 90

Q: And the “Plant response rating, Ragweed” value [11, 23]?
A: 100

Q: What about the “Plant response rating, Ragweed” value [11, 24] of the same compound?
A: 100

Q: And the “Plant response rating, Ragweed” value [11, 25]?
A: 90

Q: What about the “Plant response rating, Ragweed” value [11, 26] of the same compound?
A: 70

Q: What about the “Plant response rating, Ragweed” value [11, 27] of the same compound?
A: 100

Q: And the “Plant response rating, Sandbur” value [12, 20]?
A: 80

Q: And the “Plant response rating, Sandbur” value [12, 21]?
A: 40

Q: What about the “Plant response rating, Sandbur” value [12, 22] of the same compound?
A: 85

Q: What about the “Plant response rating, Sandbur” value [12, 23] of the same compound?
A: 65

Q: What about the “Plant response rating, Sandbur” value [12, 24] of the same compound?
A: 90

Q: And the “Plant response rating, Sandbur” value [12, 25]?
A: 70

Q: And the “Plant response rating, Sandbur” value [12, 26]?
A: 0

Q: What about the “Plant response rating, Sandbur” value [12, 27] of the same compound?
A: 70

Q: And the “Plant response rating, Kochia” value (kochia (Kochia scoparia); [20])?
A: 98

Q: And the “Plant response rating, Kochia” value (kochia (Kochia scoparia); [21])?
A: 5

Q: And the “Plant response rating, Kochia” value (kochia (Kochia scoparia); [22])?
A: 85

Q: What about the “Plant response rating, Kochia” value (kochia (Kochia scoparia); [24]) of the same compound?
A: 85

Q: And the “Plant response rating, Kochia” value (kochia (Kochia scoparia); [25])?
A: 70

Q: What about the “Plant response rating, Kochia” value (kochia (Kochia scoparia); [26]) of the same compound?
A: 0

Q: And the “Plant response rating, Kochia” value (kochia (Kochia scoparia); [28])?
A: 5

Q: And the “Plant response rating, Kochia” value (kochia (Kochia scoparia); [27])?
A: 85

Q: And the “Plant response rating, Crabgrass, Brazil” value [13, 20]?
A: 40

Q: What about the “Plant response rating, Crabgrass, Brazil” value [13, 21] of the same compound?
A: 10

Q: And the “Plant response rating, Crabgrass, Brazil” value [13, 22]?
A: 50

Q: And the “Plant response rating, Crabgrass, Brazil” value [13, 24]?
A: 50

Q: And the “Plant response rating, Crabgrass, Brazil” value [13, 25]?
A: 40

Q: And the “Plant response rating, Crabgrass, Brazil” value [13, 26]?
A: 0

Q: And the “Plant response rating, Crabgrass, Brazil” value [13, 28]?
A: 80

Q: And the “Plant response rating, Crabgrass, Brazil” value [13, 27]?
A: 80

Q: What about the “Plant response rating, Waterhemp_RES2” value [14, 31] of the same compound?
A: 40

Q: And the “Plant response rating, Waterhemp_RES2” value [14, 16]?
A: 80

Q: And the “Plant response rating, Waterhemp_RES2” value [14, 30]?
A: 70

Q: And the “Plant response rating, Waterhemp_RES1” value [15, 31]?
A: 90

Q: What about the “Plant response rating, Waterhemp_RES1” value [15, 16] of the same compound?
A: 90

Q: What about the “Plant response rating, Waterhemp_RES1” value [15, 29] of the same compound?
A: 90

Q: And the “Plant response rating, Waterhemp_RES1” value [15, 30]?
A: 95
